These results are taken from PubChem BioAssay AID651794 (The Scripps Research Institute Molecular Screening Center, 2012).

Structures are written as SMILES. The source made the active and inactive calls. How the calls were made is not given here.

The test concerns cell-based VP16 transactivation counterscreen, luciferase luminescence. Put plainly: nonselective repression of VP16-driven luciferase – cell-based, luminescence, dose response, counter-screen for SRC1 inhibitor project, late-stage follow-up (AID 651794). In general terms: A counterscreen serves to expose hits that act by an unwanted route or on another target.

Turning to `COc1ccc(Nc2ncnc3ccc(Br)cc23)c(OC)c1`, the IC50 is 36.2 µM (inactive). For `COc1cc([C@@H]2c3cc4c(cc3C(OC3OC5COC(C)OC5C(O)C3O)C3COC(=O)[C@@H]32)OCO4)cc(OC)c1O` (stereo partly drawn) the value was > 35.9 µM (inactive); for `COc1ccc(NC(=O)CN(C)C(=O)C2(c3ccccc3)CCCC2)cc1`, > 35.9 µM (inactive).

Broadly, the IC50 is the point on the concentration scale where inhibition reaches its midpoint.
